Reference: patent publication US7087762B2, “Long-lasting antimicrobial reaction product of allantoin and formaldehyde containing a low level of free formaldehyde” (ISP Investments Inc., priority 2002, dated 2006)

Experiments:
[1] = system: Aspergillus niger ATCC 16404; experiment: Minimum Inhibitory Concentration (MIC) test, tube dilution, static and cidal; format: cell-based; conditions: A. niger
Method: (§1) The measurement of the lowest effective concentration of an anti-microbial or anti-microbial blend is important for recommending use concentrations. The MIC test is an in vitro tube dilution procedure used to identify effective concentrations of anti-microbials. In this test, the experimental compound is diluted by serial concentrations into nutrient culture media. Test organisms are then inoculated into the anti-microbial solutions.
(§2) If the experimental compound is effective, there is no growth observed in the test dilution tubes and they are clear. If the experimental compound is not effective, the test dilution tubes are cloudy, indicating growth. This test will determine static as well as cidal activity concentrations.
(§3) • 1. Laminar flow hood (Baker Sterilgard SG 400) • 2. 18×150 mm culture tubes • 3. Stock antimicrobial solution • 4. Media: Trypticase soy broth (BBL 11043) and AOAC Letheen broth (BBL 10914) • 5. Test organisms: Staphylococcus aureus ATCC 6538, Escherichia coli ATCC 8739, Pseudomonas aeruginosa ATCC 9027, Burkholderia cepacia ATCC 25416, Candida albicans ATCC 10231, and Aspergillus niger ATCC 16404. • 6. Spectrophotometer (Spectronic 20D, Milton Roy)
(§4) • 1. Antimicrobial stock solutions are prepared at predetermined concentrations (i.e., 10% through 0.07%) depending on the test material. Serial doubling dilutions are made as follows. Each culture tube contains 5 mls of trypticase soy broth. Five mls of the stock solution are added to the first tube and vortexed. 5 mls are then removed and placed into the second tube, (and so on, until the last tube). At the final test concentration, 5 mls of the broth/antimicrobial mixture is decanted out. • 2. The test organisms are prepared as with any organism inoculum (MLM 100-3, MLM 100-4, and MLM 100-5). A saline suspension of each organism is prepared. The bacterial organisms and the yeast are a standardized at a concentration of 1×10^6 cfu/ml. The mold inoculum is approximately 1×10^5 cfu/ml. • 3. Inoculate each culture tube with 0.10 mls of organism inoculum and vortex. • 4. Incubate bacterial tubes for 24 hours at 35° C. Incubate yeast or mold tubes for 48 hours at 25° C. Read for growth; turbid tubes for bacteria and yeast; mold clearly visible tubes. This is the minimum inhibitory concentration (static activity). • 5. After the tubes are read, transfer all “clear” tubes and the first cloudy (growth) tube into Letheen broth containing neutralizers. Incubate the Letheen broth tubes for 48 hours at the bacterial or fungal incubation temperatures. Read for growth; turbid tubes for bacteria and yeast; mold clearly visible in mold tubes. This is the cidal activity concentration. Discussion
(§5) The cidal activity of an anti-microbial can be rapidly screened by means of a MIC test before further evaluation tests, such as longer preservative efficacy tests, are performed. This test is a tube serial dilution procedure limited only by the water solubility of the material. Where anti-microbial materials are slightly insoluble, leaving the TSB broth turbid, a procedure modification can be made. Tubes are incubated for 24 hours (bacteria) or 48 hours (fungi) but instead of transfer to Letheen broth, the TSB tubes are streaked onto Letheen agar. The agar plates are then incubated appropriately and then read for absence or presence of growth. Depending on the degree of insolubility, a measure of cidal activity may be the only parameter measured.
(§6) Anti-microbial neutralization is important in this screening test. […] These are to be determined prior to testing.

[2] = system: Burkholderia cepacia ATCC 25416; experiment: as above; format: cell-based; conditions: B. cepacia
Method: as §1, §2, §3, §4, §5, §6

[3] = system: Candida albicans ATCC 10231; experiment: as above; format: cell-based; conditions: C. albicans
Method: as §1, §2, §3, §4, §5, §6

[4] = system: Escherichia coli ATCC 8739; experiment: as above; format: cell-based; conditions: E. coli
Method: as §1, §2, §3, §4, §5, §6

[5] = system: Pseudomonas aeruginosa ATCC 9027; experiment: as above; format: cell-based; conditions: P. aeruginosa
Method: as §1, §2, §3, §4, §5, §6

[6] = system: Staphylococcus aureus ATCC 6538; experiment: as above; format: cell-based; conditions: Staph aureus
Method: as §1, §2, §3, §4, §5, §6

BC (B. cepacia) [7] = experiment: Preservative challenge test, screening emulsion; format: cell-based, Burkholderia cepacia
Method: (§7) A typical cosmetic emulsion was prepared for microbiological challenge testing and predetermined admixtures of a methylol compound and IPBC were added at various use levels. The emulsion thus prepared had the following composition:
To prepare the emulsion, Phases A and B were heated separately to 75°–80° C. Phase A then was added to Phase B with mixing. The mixture then was cooled to 55°–60° C. At this point the desired amount of the preservative admixture was added and the product was cooled to 50° C. while stirring. The citric acid solution then was added to adjust the pH and the mixture was stirred until a temperature of 30° C. was reached.
(§8) The challenge tests were carried out using the following microorganisms: SA, ECOLI, PSA, PC, AN and CAN, in this manner. 50 g aliquots of the test emulsion containing various amounts of the preservative admixture were inoculated with approximately 10^7–10^8 of the challenge organisms. The test samples then were stirred to disperse the challenge inoculum. The samples were incubated and assayed at 48 hours, 7, 14, 21 and 28 days. The assays were performed on 1 g of the test sample by serially diluting 10^1 to 10^6 of the original concentration. The plating medium for bacteria was Letheen agar and for fungi it was low pH Mycophil agar with Tween 20. Each plated sample was incubated for 48 hours at 37° C. for bacteria, 5 days at 25° C. for mold, and 3 days at 25° C. for fungi. After incubation, readings of the number of colonies per milliliter (cfu/ml) were made. At 21 days the test product was reinoculated with half of the original inoculum.

BC (B. cepacia) [8] = experiment: Preservative challenge test, nonionic emulsion; format: cell-based, Burkholderia cepacia
Method: as §7, §8

## O=C1C(N(CO)C(=O)NCO)N(CO)C(=O)N1CO (stereo not drawn) [Germall II]
[1]
  CIDAL (cidal activity concentration): 2500 ppm
  STATIC (minimum inhibitory concentration): 2500 ppm
[2]
  CIDAL (cidal activity concentration): 600 ppm
  STATIC (minimum inhibitory concentration): 150 ppm
[3]
  CIDAL (cidal activity concentration): >5000 ppm
  STATIC (minimum inhibitory concentration): 5000 ppm
[4]
  CIDAL (cidal activity concentration): 1250 ppm
  STATIC (minimum inhibitory concentration): 600 ppm
[5]
  CIDAL (cidal activity concentration): 1250 ppm
  STATIC (minimum inhibitory concentration): 600 ppm
[6]
  CIDAL (cidal activity concentration): 1250 ppm
  STATIC (minimum inhibitory concentration): 300 ppm
BC (B. cepacia) [7]; 250 ppm
  cfu/ml, 48 hrs: <10 cfu/ml
  cfu/ml, 7 days: <10 cfu/ml
  cfu/ml, 14 days: <10 cfu/ml
  cfu/ml, 21 days: <10 cfu/ml
  cfu/ml, 28 days: <10 cfu/ml
BC (B. cepacia) [7]; 500 ppm
  cfu/ml, 48 hrs: <10 cfu/ml
  cfu/ml, 7 days: <10 cfu/ml
  cfu/ml, 14 days: <10 cfu/ml
  cfu/ml, 21 days: <10 cfu/ml
  cfu/ml, 28 days: <10 cfu/ml
BC (B. cepacia) [7]; 1000 ppm
  cfu/ml, 48 hrs: <10 cfu/ml
  cfu/ml, 7 days: <10 cfu/ml
  cfu/ml, 14 days: <10 cfu/ml
  cfu/ml, 21 days: <10 cfu/ml
  cfu/ml, 28 days: <10 cfu/ml
BC (B. cepacia) [7]; 2000 ppm
  cfu/ml, 48 hrs: <10 cfu/ml
  cfu/ml, 7 days: <10 cfu/ml
  cfu/ml, 14 days: <10 cfu/ml
  cfu/ml, 21 days: <10 cfu/ml
  cfu/ml, 28 days: <10 cfu/ml
BC (B. cepacia) [8]; 2000 ppm
  cfu/ml, 48 hrs: <10 cfu/ml
  cfu/ml, 7 days: <10 cfu/ml
  cfu/ml, 14 days: <10 cfu/ml
  cfu/ml, 21 days: <10 cfu/ml
  cfu/ml, 28 days: <10 cfu/ml
BC (B. cepacia) [8]; 4000 ppm
  cfu/ml, 48 hrs: <10 cfu/ml
  cfu/ml, 7 days: <10 cfu/ml
  cfu/ml, 14 days: <10 cfu/ml
  cfu/ml, 21 days: <10 cfu/ml
  cfu/ml, 28 days: <10 cfu/ml
